Numbering of substitutions follows the chain as printed. Ends that are not written are not given here.

The values that follow come from publication PMC9046087, “Structural basis of tethered agonism of the adhesion GPCRs ADGRD1 and ADGRF1” (Nature, 2022).

In assay [1] the target is T1, ADGRF1 (Homo sapiens, UniProt Q5T601, F690A).
T1 construct: Flag (N); expressed in transfected cells; host or cells: HEK293F
T1 sequence (Q5T601 20-910 F690A): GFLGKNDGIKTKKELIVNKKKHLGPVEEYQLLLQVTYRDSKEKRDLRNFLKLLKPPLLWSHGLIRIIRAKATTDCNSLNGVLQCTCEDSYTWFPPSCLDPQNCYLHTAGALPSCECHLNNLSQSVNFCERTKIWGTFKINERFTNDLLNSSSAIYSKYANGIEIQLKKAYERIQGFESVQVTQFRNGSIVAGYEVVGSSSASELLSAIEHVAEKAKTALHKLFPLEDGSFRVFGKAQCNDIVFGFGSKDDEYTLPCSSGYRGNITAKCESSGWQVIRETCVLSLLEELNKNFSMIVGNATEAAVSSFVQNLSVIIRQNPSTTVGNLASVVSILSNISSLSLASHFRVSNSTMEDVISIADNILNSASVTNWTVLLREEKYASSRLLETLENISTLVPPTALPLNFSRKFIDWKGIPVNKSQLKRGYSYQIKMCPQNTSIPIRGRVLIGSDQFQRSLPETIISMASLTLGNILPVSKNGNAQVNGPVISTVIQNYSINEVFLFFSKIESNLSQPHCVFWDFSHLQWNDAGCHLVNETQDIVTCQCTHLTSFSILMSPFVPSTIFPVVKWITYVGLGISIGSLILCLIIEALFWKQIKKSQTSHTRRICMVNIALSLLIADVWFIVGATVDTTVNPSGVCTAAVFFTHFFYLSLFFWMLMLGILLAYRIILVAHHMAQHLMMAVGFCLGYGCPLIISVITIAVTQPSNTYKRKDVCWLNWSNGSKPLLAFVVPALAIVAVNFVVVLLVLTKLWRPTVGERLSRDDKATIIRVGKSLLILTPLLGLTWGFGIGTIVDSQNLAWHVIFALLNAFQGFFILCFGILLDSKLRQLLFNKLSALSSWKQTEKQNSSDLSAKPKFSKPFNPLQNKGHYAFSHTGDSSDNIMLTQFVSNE
As to the kind of experiment: BRET assay using TRUPATH biosensors, Gs activation of ADGRF1. The assay is classed as cell-based. Conditions: Gs, ADGRF1 F690^ICL2A, n = 3. As for the experimental part:
(§1) To study the synthetic stalk peptide-induced G protein activation of ADGRD1 and ADGRF1, a BRET assay using TRUPATH biosensors was conducted to measure the proximal interaction between RLuc8 fused to the Gα subunit and GFP2 fused to the Gγ subunit. The TRUPATH suite of biosensors was obtained from Addgene (Addgene kit no. 1000000163) as a gift from B. Roth, including GαsS-RLuc8, Gαi1-RLuc8, Gβ3 and Gγ9-GFP2 as previously described.
(§2) The wild-type or mutant ADGRD1 and ADGRF1 were transiently co-transfected with plasmids encoding Gα-RLuc8 (GαsS-RLuc8 for Gs activation assay; Gαi1-RLuc8 for Gi activation assay), Gβ3 and Gγ9-GFP2 at a ratio of 2:1:1:1 (receptor plasmid, 800 ng; G protein subunit plasmids, 400 ng for each) in 2 ml HEK293F cells at a density of 1.2 × 10^6 cells per ml. Cell cultivation and receptor surface expression measurement were performed as described above. The cells were plated into 96-well white plates (40,000 cells per well) in 60 μl of assay buffer and incubated at 37 °C for 30 min. Then 10 μl of freshly prepared 50 μM coelenterazine 400a (Nanolight Technologies) was added. […] The cells were stimulated with 30 μl of synthetic stalk peptide at different concentrations and the BRET signals were monitored continuously five times. The last measurements were used in data analysis. The BRET ratios were calculated as the ratio of the GFP2 emission to RLuc8 emission.
(In general: In BRET a luciferase serves as donor, and the signal depends on an acceptor being close.)

The target of assay [2] is T2, ADGRF1 (Homo sapiens, UniProt Q5T601, V689A).
T2 construct: Flag (N); expressed in transfected cells; host or cells: HEK293F
T2 sequence (Q5T601 20-910 V689A): T1 sequence (Q5T601 20-910 F690A) with V670A, A671F
Described as above. The assay is classed as cell-based. The note with it: Gs, ADGRF1 V689^ICL2A, n = 3. The protocol: as §1, §2

The mark [3] stands for this setting: read-out: pEC50 (mean ± s.e.m.) (converted).

Turning to TSFSILMSPFVP [pF1], the “Emax (mean ± s.e.m.)” value is recorded as 110 ± 12 % of WT on ADGRF1 [1] and 77 ± 10 % of WT on ADGRF1 [2]. Also, the EC50 at ADGRF1 [1] (setting [3]) was 115 nM; at ADGRF1 [2] (setting [3]), 204 nM.
